The values that follow come from patent US5827866A, “Peptidyl heterocycles useful in the treatment of thrombin related disorders” (Ortho Pharmaceutical Corporation, priority 1995, dated 1998).

The nature of one series: Ex vivo bioavailability assay (i.v. and p.o.). Set-up: species or system male rats. Particulars: rat, p.o. vs i.v.; drug in plasma extrapolated from thrombin inhibition. As to the method: Bioavailability was determined by an ex vivo assay which incorporated hydrolysis rates from drug administered both i.v. and p.o. In this assay male rats were prepared as described above with a teflon tube implanted in their femoral artery.
A standard curve was generated by adding of drug or vehicle (100 μL) to whole blood (900 μL) followed by incubating (5 min) and centrifuging to obtain plasma. The percentage of thrombin inhibition was calculated by comparing the V0 of the vehicle to that of the drug treated samples. Datum from several runs were normalized with a statistical package (SAS) to generate a standard curve.
The percentage of thrombin inhibition in the treated animals was calculated by comparing the V0 prior to treatment with the V0 obtained from samples collected after treatment. The percent inhibition was applied to the standard curve (generated above) using the statistical package (SAS) and the quantity of drug in the sample was extrapolated.
Bioavailability (Bioavail.) was calculated from the plots of the extrapolated drug in sample vs. time for both i.v. and p.o. administration using the following equation:
%Bioavail. =([…])×(area
under p.o. curve/area under curve i.v.)
Consider `CN[C@H](Cc1ccccc1)C(=O)N1CCC[C@H]1C(=O)N[C@@H](CCCNC(=N)N)C(=O)c1nc2ccccc2s1` [Compound 1, N-METHYL-D-PHENYLALANYL-N-[4-[(AMINOIMINOMETHYL)AMINO]-1S-[(BENXOTHIAZOL-2- YL)CARBONYL]BUTYL]-L-PROLINAMIDE], for which the “Bloavail,” value is reported as 1.2%.

Assay in the next series: not given
Particulars: rat, in vivo, iv.
`CN[C@H](Cc1ccccc1)C(=O)N1CCC[C@H]1C(=O)N[C@@H](CCCNC(=N)N)C(=O)c1nc2ccccc2s1` [Compound 1, N-METHYL-D-PHENYLALANYL-N-[4-[(AMINOIMINOMETHYL)AMINO]-1S-[(BENXOTHIAZOL-2- YL)CARBONYL]BUTYL]-L-PROLINAMIDE] gave a t1/2 of 19 min.

`CNC(Cc1ccccc1)C(=O)N1CCCC1C(=O)NC(CCCNC(=N)N)C(=O)c1nccs1` (centres unmarked) [Compound 4] gave a t1/2 of 16 min.

`CN[C@H](Cc1ccccc1)C(=O)N1CCC[C@H]1C(=O)N[C@@H](CCCNC(=N)N)C(=O)c1nc2ccc(C(=O)OC)cc2s1` [Compound 12] registered a t1/2 of 43 min.

`CN[C@H](Cc1ccccc1)C(=O)N1CCC[C@H]1C(=O)N[C@@H](CCCNC(=N)N)C(=O)c1nc2ccc(C(=O)O)cc2s1` [Compound 13]: the t1/2 is given as 25 min.

`CN[C@H](Cc1ccccc1)C(=O)N1CCC[C@H]1C(=O)N[C@@H](CCCNC(=N)N)C(=O)c1nc2ccc(CO)cc2s1` [Compound 15] returned a t1/2 of 16 min.

Compound `CN[C@H](Cc1ccccc1)C(=O)N1CCC[C@H]1C(=O)N[C@@H](CCCNC(=N)N)C(=O)c1nc2ccc(F)cc2s1` [Compound 17] yielded a t1/2 of 8 min.

Compound `CCOC(=O)c1csc(C(=O)[C@H](CCCNC(=N)N)NC(=O)[C@@H]2CCCN2C(=O)[C@@H](Cc2ccccc2)NC)n1` [Compound 19] came in with a t1/2 of 14 min.

`CNC(Cc1ccccc1)C(=O)N1CCCC1C(=O)NC(CCCNC(=N)N)C(=O)c1nc2ccccc2[nH]1` (centres unmarked) [Compound 21] returned a t1/2 of 5 min.

Consider `CN[C@H](CC1CCCCC1)C(=O)N1CCC[C@H]1C(=O)N[C@@H](CCCNC(=N)N)C(=O)c1nc2ccccc2s1` [Compound 29, N-METHYL-D-CYCLOHEXYLALANYL-N-[4-[(AMINOIMINOMETHYL)AMINO]-1S-[(BENXOTHIAZOL-2-YL)CARBONYL]BUTYL]-L-PROLINAMIDE], for which the t1/2 was 14 min.

For the compound `CN[C@H](Cc1c(F)c(F)c(F)c(F)c1F)C(=O)N1CCC[C@H]1C(=O)N[C@@H](CCCNC(=N)N)C(=O)c1nc2ccccc2s1` [Compound 30], the t1/2 worked out at 6 min.

With `CN[C@H](Cc1ccc(F)cc1)C(=O)N1CCC[C@H]1C(=O)N[C@@H](CCCNC(=N)N)C(=O)c1nc2ccccc2s1` [Compound 32, N-METHYL-D-(4-FLUOROPHENYL)ALANYL-N-[4-[(AMINOIMINOMETHYL)AMINO)-1S-[(BENXOTHIAZOL-2-YL)CARBONYL]BUTYL]-L-PROLINAMIDE], the t1/2 is 19 min.

For the compound `CNC(C(=O)N1CCCC1C(=O)NC(CCCNC(=N)N)C(=O)c1nc2ccccc2s1)c1ccccc1` [Compound 33, N-METHYL-D-PHENYLGLYCYL-N-[4-[(AMINOIMINOMETHYL)AMINO]-1S-[(BENXOTHIAZOL-2- YL)CARBONYL]BUTYL]-L-PROLINAMIDE], the t1/2 came out at 18 min.

Consider `CC(=O)N[C@H](Cc1ccccc1)C(=O)N1CCC[C@H]1C(=O)N[C@@H](CCCNC(=N)N)C(=O)c1nc2ccccc2s1.O=C(O)C(F)(F)F` [Compound 35], for which the t1/2 was found to be 11 min.

`CN[C@@H](C(=O)N1CCC[C@H]1C(=O)N[C@@H](CCCNC(=N)N)C(=O)c1nc2ccccc2s1)C1CCCCC1` [Compound 37, N-METHYL-D-CYCLOHEXYLGLYCYL-N-[4-[(AMINOIMINOMETHYL)AMINO]-1S-[(BENXOTHIAZOL-2-YL)CARBONYL]BUTYL]-L-PROLINAMIDE] displayed a t1/2 of 42 min.

In turn, `CN[C@H](Cc1ccccc1)C(=O)N1CCC[C@H]1C(=O)N[C@@H](CCCNC(=N)N)C(=O)c1nc2c(s1)CCCC2` [Compound 51] showed a t1/2 of 17 min.

In the case of `CN[C@H](Cc1ccccc1)C(=O)N1CCC[C@H]1C(=O)N[C@@H](CCCNC(=N)N)C(=O)c1nc2ccc3ccccc3c2s1` [Compound 52], the t1/2 was determined as 8 min.

`CN[C@H](Cc1ccccc1)C(=O)N1CCC[C@H]1C(=O)N[C@@H](CCCNC(=N)N)C(=O)c1nc(C(=O)O)cs1` [Compound 54] had a t1/2 of 15 min.

Another series can be described thus: Ex vivo i.v. assay for duration of action (time to half plasma elimination). The settings on record: rat, from slope of Vo vs. time of plasma thrombin inhibition.
Procedure: An ex vivo assay was conducted to determine the duration of action of the compounds of Formula I. For this i.v. assay male rats (Long Evans, 350-500 g) were implanted with a teflon cannulae via the femoral artery while under anesthesia (pentobarbital i.p., 35 mg/kg). […] The animals were allowed to recover for at least 24 h after the surgical procedure.
The test compound was dispersed in water and delivered to the animal (0.25 mL) via the femoral vein. […] A plasma sample was obtained by centrifuging the blood at 10,000 rpm for 5 min. This sample is analyzed for thrombin inhibition using the chromogenic assay, described below.
Datum was collected over a 30 min period and the initial rate of substrate hydrolysis (V0 (mOD/min)) was calculated with an analysis program (Softmax, Molecular Devices).
The time to half plasma elimination (t 1/2) was calculated from the slope of Vo vs. time, using the following equation:
For the compound `CN[C@H](Cc1ccccc1)C(=O)N1CCC[C@H]1C(=O)N[C@@H](CCCNC(=N)N)C(=O)c1nc2ccc(O)cc2s1` [Compound 25], the t1/2 is recorded as 14 min.

`CNC(C(=O)N1CCC[C@H]1C(=O)N[C@@H](CCCNC(=N)N)C(=O)c1nc2ccccc2s1)c1ccccc1` (some centres unmarked) [Compound 34] came in with a t1/2 of 26 min.
